From US6737383B1, “Herbicidal oxadiazolidines” (priority 1999, dated 2004)

Columns and labels:
[1] = test system: goosegrass; assay: Test D goosegrass; assay type: in vivo, Eleusine indica; conditions: Preemergence, 0 to 100 scale
Method in brief: (§1)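 Scoring used a 0–100 visual injury scale, with 0 meaning no effect and 100 complete control, assessed 14–21 days after application alongside untreated pots. Preemergence treatments went onto sandy loam surfaces of separately potted seeds within a day of sowing.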

[2] = test system: Spanishneedles; assay: Test D Spanishneedles; assay type: in vivo, Bidens bipinnata; conditions: Preemergence, 0 to 100 scale
Method in brief: as §1

[3] = test system: itchgrass; assay: Test D itchgrass; assay type: in vivo, Rottboellia exaltata; conditions: Preemergence, 0 to 100 scale
Description: (§2) Seeds, tubers, or plant parts of Alexandergrass (Brachiaria plantaginea), bermuda-grass (Cynodon dactylon), common pursiane (Portulaca oleracea), common ragweed (Ambrosia elatior), common groundsel (Senecio vulgaris), dallisgrass (Paspalum dilatatum), goosegrass (Eleusine indica), guineagrass (Panicum maximum), itchgrass (Rottboellia exaltata), Johnson grass (Sorghum halepense), large crabgrass (Digitaria sanguinalis), pitted morningglory (Ipomoea lacunosa), purple nutsedge (Cyperus rotundus), sandbur (Cenchrus echinatus), sourgrass (Trichachne insularis), Spanishneedles (Bidens bipinnata), surinam grass (Brachiaria decumbens) and tall mallow (Malva sylvestris) were planted into greenhouse pots of flats containing greenhouse planting medium. Plant species were grown in separate pots or individual compartments. Preemergence applications were made within one day of planting the seed or plant part.
(§3) Test chemicals were formulated in a non-phytotoxic solvent mixture which included a surfactant and applied preemergence to the surface of the pot containing seeds in a sandy loam soil. Untreated control pots and treated pots were placed in the greenhouse for growth and visually evaluated for injury 14 to 21 days after herbicide application. Plant response ratings, summarized in Table C, are based on a 0 to 100 scale where 0 is no injury and 100 is complete control. A dash (−) response means no test result.

[4] = test system: surinam grass; assay: Test D surinam grass; assay type: in vivo, Brachiaria decumbens; conditions: Preemergence, 0 to 100 scale
Method in brief: as §1

[5] = test system: Johnson grass; assay: Test D Johnson grass; assay type: in vivo, Sorghum halepense; conditions: Preemergence, 0 to 100 scale
Description: as §2, §3

[6] = test system: bermuda-grass; assay: Test D bermudagrass; assay type: in vivo, Cynodon dactylon; conditions: Preemergence, 0 to 100 scale
Description: as §2, §3

[7] = test system: pitted morningglory; assay: Test D pitted morningglory; assay type: in vivo, Ipomoea lacunosa; conditions: Preemergence, 0 to 100 scale
Description: as §2
as §3, with “Plant response ratings, summarized in Table C, are based on a 0 to 100 scale where 0 is no injury and 100 is complete control.” left out

[8] = test system: dallisgrass; assay: Test D dallisgrass; assay type: in vivo, Paspalum dilatatum; conditions: Preemergence, 0 to 100 scale
Method in brief: as §1

[9] = test system: Italian ryegrass; assay: Test E Italian ryegrass; assay type: in vivo, Lolium multiflorum; conditions: Postemergence
Method in brief: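 Visual evaluation versus untreated controls after about 21 to 28 days in the greenhouse. Compound was in a surfactant-containing non-phytotoxic solvent; postemergence plants were treated at the 1- to 4-leaf stage, grown in a 60:40 sandy loam and potting mix blend.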

[10] = test system: annual bluegrass; assay: Test E annual bluegrass; assay type: in vivo, Poa annua; conditions: Postemergence
Protocol: Compounds evaluated in this test were formulated in a non-phytotoxic solvent mixture which included a surfactant and applied to plants that were in the 1- to 4-leaf stage (postemergence application). A mixture of sandy loam soil and greenhouse potting mix in a 60:40 ratio was used for the postemergence test.
Plantings of these crops and weed species were adjusted to produce plants of appropriate size for the postemergence test. All plant species were grown using normal greenhouse practices. Crop and weed species include annual bluegrass (Poa annua), blackgrass (Alopecurus myosuroides), black nightshade (Solanum nigra), chickweed (Stellaria media), common poppy (Papaver rhoeas), deadnettle (Lamium amplexicaule), downy brome (Bromus tectorum), field violet (Viola arvensis), galium (Galium aparine), green foxtail (Setaria viridis), Italian ryegrass (Lolium multiflorum), jointed goatgrass (Aegilops cylindrica), kochia (Kochia scoparia), lambsquarters (Chenopodium album), littleseed canarygrass (Phalaris minor), rape (Brassica napus), redroot pigweed (Amaranthus retroflexus), Russian thistle (Salsola kali), scentless chamomile (Matricaria inodora), spring barley (Hordeum vulgare), sugar beet (Beta vulgaris), sunflower (Helianthus annuus), ivyleaf speedwell (Veronica hederaefolia), spring wheat (Triticum aestivum), winter wheat (Triticum aestivum), wild buckwheat (Polygonum convolvulus), wild mustard (Sinapis arvensis), wild oat (Avena fatua), windgrass (Apera spica-venti) and winter barley (Hordeum vulgare).
Treated plants and untreated controls were maintained in a greenhouse for approximately 21 to 28 days, after which all treated plants were compared to untreated controls and visually evaluated. […] A dash response (-) means no test result.

[11] = test system: common ragweed; assay: Test D common ragweed; assay type: in vivo, Ambrosia elatior
[12] = test system: dallisgrass; assay: Test D dallisgrass; assay type: in vivo, Paspalum dilatatum; conditions: Postemergence, 0 to 100 scale
[13] = test system: Johnson grass; assay: Test D Johnson grass; assay type: in vivo, Sorghum halepense; conditions: Postemergence, 0 to 100 scale
[14] = test system: Green foxtail; assay: Test D green foxtail; assay type: in vivo; conditions: Rate 250 g/ha; Postemergence; 0 to 100 scale
[15] = test system: purple nutsedge; assay: Test D purple nutsedge; assay type: in vivo, Cyperus rotundus; conditions: Postemergence, 0 to 100 scale
[16] = Rate 32 g/ha, 0 no injury, 100 complete control
[17] = Rate 64 g/ha, 0 no injury, 100 complete control
[18] = Rate 125 g/ha, 0 no injury, 100 complete control
[19] = Rate 16 g/ha, 0 no injury, 100 complete control
[20] = Rate 250 g/ha, 0 to 100 scale (0 no effect, 100 complete control)
[21] = Rate 500 g/ha, 0 to 100 scale, 0 no effect, 100 complete control
[22] = Rate 32 g/ha; Postemergence; 0 to 100 scale, 0 no injury, 100 complete control
[23] = Rate 64 g/ha, Postemergence; 0 to 100 scale, 0 no injury, 100 complete control
[24] = Rate 125 g/ha, Postemergence; 0 to 100 scale, 0 no injury, 100 complete control
[25] = Rate 250 g/ha; Postemergence; 0 to 100 scale

Cc1cccc(C)c1-n1c(=O)on(C(=O)N(c2ccc(F)cc2F)C(C)C)c1=O [Compound 28]
85: Plant response rating, Goosegrass [1, 17] | Plant response rating, Bermudagrass [6, 16] | Plant response rating, Dallisgrass [8, 18]
40: Plant response rating, Itchgrass [3, 18] | Plant response rating, Itchgrass ([3]; Rate 250 g/ha)
60: Spanishneedles plant response rating [2, 17]
98: Plant response rating, Goosegrass [1, 18]
20: Plant response rating, Itchgrass [3, 17]
75: Spanishneedles plant response rating [2, 18] | Plant response rating, Surinam grass ([4]; Rate 250 g/ha) | Plant response rating, Dallisgrass [8, 17]
30: Plant response rating, Dallisgrass [8, 16]
65: Surinam grass plant response rating [4, 18]
100: Plant response rating, Goosegrass ([1]; Rate 250 g/ha) | Plant response rating, Bermudagrass [6, 17] | Plant response rating, Bermudagrass [6, 18] | Plant response rating, Bermudagrass ([6]; Rate 250 g/ha) | Plant response rating, Dallisgrass ([8]; Rate 250 g/ha)
0: Plant response rating, Goosegrass [1, 16] | Plant response rating, Spanishneedles [2, 16] | Plant response rating, Itchgrass [3, 16] | Plant response rating, Surinam grass [4, 16] | Surinam grass plant response rating [4, 17] | Plant response rating Johnsongrass [5, 16] | Plant response rating Johnsongrass [5, 17] | Plant response rating Johnsongrass [5, 18] | Plant response rating Johnsongrass ([5]; Rate 250 g/ha) | Plant response rating, P. morninglory [7, 16] | Plant response rating, P. morninglory [7, 17] | Plant response rating, P. morninglory [7, 18] | Plant response rating, P. morninglory ([7]; Rate 250 g/ha)

CCn1c(=O)on(C(=O)N(c2ccc(F)cc2)C(C)C)c1=O [Compound 107]
98: Plant response rating, Goosegrass [1, 16] | Plant response rating, Itchgrass [3, 18] | Plant response rating Johnsongrass ([5]; Rate 250 g/ha)
30: Plant response rating, I. Ryegrass [9, 20] | Plant response rating, Surinam grass [4, 19] | Plant response rating, P. morninglory [7, 17] | Plant response rating, P. morninglory [7, 18] | Plant response rating, Dallisgrass [8, 19]
100: Plant response rating, Goosegrass [1, 17] | Plant response rating, Goosegrass [1, 18] | Plant response rating, Goosegrass ([1]; Rate 250 g/ha) | Plant response rating, Goosegrass ([1]; Rate 500 g/ha) | Plant response rating, Spanishneedles ([2]; Rate 500 g/ha) | Plant response rating, Itchgrass ([3]; Rate 250 g/ha) | Plant response rating, Itchgrass ([3]; Rate 500 g/ha) | Surinam grass plant response rating [4, 17] | Surinam grass plant response rating [4, 18] | Plant response rating, Surinam grass ([4]; Rate 250 g/ha) | Plant response rating, Surinam grass ([4]; Rate 500 g/ha) | Plant response rating Johnsongrass ([5]; Rate 500 g/ha) | Plant response rating, Bermudagrass [6, 16] | Plant response rating, Bermudagrass [6, 17] | Plant response rating, Bermudagrass [6, 18] | Plant response rating, Bermudagrass ([6]; Rate 250 g/ha) | Plant response rating, Bermudagrass ([6]; Rate 500 g/ha) | Plant response rating, P. morninglory ([7]; Rate 500 g/ha) | Plant response rating, Dallisgrass [8, 17] | Plant response rating, Dallisgrass [8, 18] | Plant response rating, Dallisgrass ([8]; Rate 250 g/ha) | Plant response rating, Dallisgrass ([8]; Rate 500 g/ha)
0: Plant response rating, I. Ryegrass ([9]; Rate 62 g/ha, 0 to 100 scale) | Plant response rating, Spanishneedles [2, 19] | Plant response rating, Spanishneedles [2, 16] | Spanishneedles plant response rating [2, 17] | Plant response rating, P. morninglory [7, 19] | Plant response rating, P. morninglory [7, 16]
20: Spanishneedles plant response rating [2, 18] | Plant response rating Johnsongrass [5, 19] | Plant response rating, Annual bluegras ([10]; Rate 62 g/ha, 0 to 100 scale)
90: Plant response rating Johnsongrass [5, 17] | Plant response rating Johnsongrass [5, 18]
40: Plant response rating, Itchgrass [3, 19]
75: Plant response rating, Itchgrass [3, 16] | Plant response rating, Surinam grass [4, 16] | Plant response rating, P. morninglory ([7]; Rate 250 g/ha)
5: Plant response rating, Annual bluegras ([10]; Rate 125 g/ha, 0 to 100 scale)
50: Plant response rating, I. Ryegrass ([9]; Rate 125 g/ha, 0 to 100 scale) | Plant response rating, Annual bluegras [10, 20]
85: Plant response rating, Goosegrass [1, 19] | Plant response rating, Itchgrass [3, 17] | Plant response rating Johnsongrass [5, 16] | Plant response rating, Bermudagrass [6, 19] | Plant response rating, Dallisgrass [8, 16]

CCn1c(=O)on(C(=O)N(c2ccc(F)cc2F)C(C)C)c1=O [Compound 116]
100: Plant response rating, Annual bluegras ([10]; Rate 62 g/ha, 0 to 100 scale)
50: Plant response rating, I. Ryegrass ([9]; Rate 125 g/ha, 0 to 100 scale) | Plant response rating, Annual bluegras ([10]; Rate 125 g/ha, 0 to 100 scale)
0: Plant response rating, I. Ryegrass ([9]; Rate 62 g/ha, 0 to 100 scale) | Plant response rating, I. Ryegrass [9, 21]
75: Plant response rating, Annual bluegras [10, 21]
70: Plant response rating, I. Ryegrass [9, 20] | Plant response rating, Annual bluegras [10, 20]

C=C(C)Cn1c(=O)on(C(=O)N(c2ccc(F)cc2)C(C)C)c1=O [Compound 139]
10: Plant response rating Johnsongrass [5, 17]
30: Plant response rating, P. morninglory [7, 17]
90: Plant response rating, Dallisgrass [8, 17]
20: Spanishneedles plant response rating [2, 17] | Plant response rating, Itchgrass [3, 17] | Surinam grass plant response rating [4, 17]
98: Plant response rating, Goosegrass [1, 17] | Plant response rating, Bermudagrass [6, 17]

CC(C)N(C(=O)n1oc(=O)n(C2CC2)c1=O)c1ccccc1 [Compound 243]
10: Plant response rating, C. ragweed [11, 23] | Plant response rating, C. ragweed [11, 24] | Purple nutsedge plant response rating [15, 18]
0: Plant response rating, C. ragweed ([11]; Rate 16 g/ha; Postemergence; 0 to 100 scale, 0 no injury, 100 complete control) | Plant response rating, C. ragweed [11, 22] | Plant response rating, Dallisgrass [12, 19] | Plant response rating Johnsongrass [13, 19] | Plant response rating Johnsongrass [13, 16] | Plant response rating Johnsongrass [13, 17] | Plant response rating, Purple nutsedge [15, 19] | Plant response rating, Purple nutsedge [15, 16] | Purple nutsedge plant response rating [15, 17]
100: Plant response rating, Dallisgrass [12, 18] | Plant response rating, Dallisgrass ([12]; Rate 250 g/ha) | Plant response rating Johnsongrass ([13]; Rate 250 g/ha) | Plant response rating, Green foxtail [14] | Plant response rating, Purple nutsedge ([15]; Rate 250 g/ha)
50: Plant response rating, Dallisgrass [12, 16]
70: Plant response rating, Dallisgrass [12, 17]
30: Plant response rating Johnsongrass [13, 18]
60: Plant response rating, C. ragweed [11, 25]

COCC(C)n1c(=O)on(C(=O)N(c2ccc(F)cc2F)C(C)C)c1=O (stereo not shown) [Compound 352]
0: Plant response rating, C. ragweed ([11]; Postemergence; Rate 16 g/ha; 0 to 100 scale, 0 no injury, 100 complete control) | Plant response rating, C. ragweed [11, 22] | Plant response rating, Dallisgrass [12, 19] | Plant response rating Johnsongrass [13, 19] | Plant response rating Johnsongrass [13, 16] | Plant response rating Johnsongrass [13, 17] | Plant response rating, Purple nutsedge [15, 19] | Plant response rating, Purple nutsedge [15, 16] | Purple nutsedge plant response rating [15, 17] | Purple nutsedge plant response rating [15, 18] | Plant response rating, Purple nutsedge ([15]; Rate 250 g/ha)
100: Plant response rating, C. ragweed [11, 25] | Plant response rating, Dallisgrass [12, 18] | Plant response rating, Dallisgrass ([12]; Rate 250 g/ha) | Plant response rating, Green foxtail [14]
80: Plant response rating, Dallisgrass [12, 17] | Plant response rating Johnsongrass ([13]; Rate 250 g/ha)
70: Plant response rating, Dallisgrass [12, 16]
20: Plant response rating, C. ragweed [11, 23] | Plant response rating, C. ragweed [11, 24]
40: Plant response rating Johnsongrass [13, 18]
